Data as given in US20250186436A1 (4E Therapeutics, Inc., priority 2021, published 2025).
Several values for one entry are separate records, joined by “and”; a condition that tells them apart may be missing. Identical values can stand only once.

Key:
[1] = PK study in male Sprague-Dawley rats dosed once per day for five days, PO 10 mg/kg, 0.5% HPMC (Example 7); format: in vivo; details: male, Sprague-Dawley, rat, in vivo, po, 10 mg/kg, 0.5% HPMC suspension
Description: Example 7. PK study of 4ET-03-053 in male Sprague-Dawley rats dosed once per day for five days (P0; 10 mg/kg; 0.5%0HPMC aqueous suspension)
Table 21 provides plasma and brain concentrations at 24 hr after the last dose of five daily P0 doses of 4ET-03-053.

[2] = PK study in male Sprague-Dawley rats dosed once per day for five days, PO 25 mg/kg, 0.5% HPMC (Example 8); format: in vivo; details: 0.5% HPMC suspension
Description: Example 8. PK study of 4ET-03-053 in male Sprague-Dawley rats dosed once per day for five days (P0; 25 mg/kg; 0.5HPMC aqueous suspension)
Table 24 provides plasma and brain concentrations at 24 hr after the last dose of five daily PO doses of 4ET-03-053.

[3] = male Sprague-Dawley rats, single PO 10 mg/kg dose, individual animals
[4] = male Sprague-Dawley rats, single PO 10 mg/kg dose, mean (n = 3)
[5] = day five of daily PO 25 mg/kg, individual animals, 25 mg/kg
[6] = day five of daily PO 25 mg/kg, mean (n = 3)
[7] = male, Sprague-Dawley, rat, in vivo, po, 25 mg/kg, day five of daily PO 25 mg/kg, individual animals
[8] = male, Sprague-Dawley, rat, in vivo, po, 25 mg/kg, day five of daily PO 25 mg/kg, mean (n = 3)
[9] = male, Sprague-Dawley, rat, in vivo, po, 25 mg/kg, single PO 25 mg/kg dose, individual animals
[10] = male, Sprague-Dawley, rat, in vivo, po, 25 mg/kg, single PO 25 mg/kg dose, mean (n = 3)
[11] = single PO 25 mg/kg dose, individual animals, 25 mg/kg
[12] = single PO 25 mg/kg dose, mean (n = 3)

Q: With Cc1cc(Nc2cc(N)ncn2)c(=O)n2c1C(=O)NC21CCC2(CC2)CC1 [4ET-03-053, 6″-((6-Aminopyrimidin-4-yl)amino)-8″-methyl-2″H-dispiro[cyclopropane-1,1′-cyclohexane-4′,3″-imidazo[1,5-a]pyridine]-1″,5″-dione] as the compound, how does the concentration at 24 h ([1]; Sprague-Dawley rats, day five of daily PO 10 mg/kg, mean (n = 3), read-out: Clast) read?
A: 2670 ng/mL

Q: And the Cmax ([1]; Sprague-Dawley rats, day five of daily PO 10 mg/kg, mean (n = 3), read-out: Cmax)?
A: 22800 ng/mL

Q: What about the half-life ([1]; Sprague-Dawley rats, day five of daily PO 10 mg/kg, mean (n = 3), read-out: t1/2 (converted)) of the same compound?
A: 409 min

Q: And the bioavailability ([1]; Sprague-Dawley rats, following five daily PO doses of 10 mg/kg)?
A: 59.9%

Q: What about the concentration at 24 h ([1]; Sprague-Dawley rats, following five daily PO doses of 10 mg/kg, at 24 hr, read-out: last measurable concentration) of the same compound?
A: 2670 ng/mL

Q: What about the Cmax ([1]; Sprague-Dawley rats, following five daily PO doses of 10 mg/kg, read-out: peak plasma concentration (Cmax)) of the same compound?
A: 22800 ng/mL

Q: What about the half-life ([1]; Sprague-Dawley rats, following five daily PO doses of 10 mg/kg, read-out: terminal half-life (converted)) of the same compound?
A: 409 min

Q: What about the AUC(0-inf) ([1]; Sprague-Dawley rats, following five daily PO doses of 10 mg/kg, read-out: total systemic exposure (AUCinf)) of the same compound?
A: 308 µg·h/mL

Q: What about the AUC(0-t) [1, 3] of the same compound?
A: 247 µg·h/mL

Q: What about the MRT inf [1, 3] of the same compound?
A: 7.18 h

Q: And the Tmax [1, 3]?
A: 2 h

Q: What about the AUC(0-inf) ([1]; male Sprague-Dawley rats, single PO 10 mg/kg dose, individual animals, read-out: AUCinf) of the same compound?
A: 255 µg·h/mL

Q: And the concentration at 24 h ([1]; male Sprague-Dawley rats, single PO 10 mg/kg dose, individual animals, read-out: Clast)?
A: 1330 ng/mL

Q: What about the Cmax ([1]; male Sprague-Dawley rats, single PO 10 mg/kg dose, individual animals, read-out: Cmax) of the same compound?
A: 25100 ng/mL

Q: And the half-life ([1]; male Sprague-Dawley rats, single PO 10 mg/kg dose, individual animals, read-out: t1/2 (converted))?
A: 323 min

Q: And the AUC(0-t) [1, 4]?
A: 262 µg·h/mL

Q: And the Tmax [1, 4]?
A: 1.67 h

Q: And the AUC(0-inf) ([1]; male Sprague-Dawley rats, single PO 10 mg/kg dose, mean (n = 3), read-out: AUCinf)?
A: 272 µg·h/mL

Q: And the concentration at 24 h ([1]; male Sprague-Dawley rats, single PO 10 mg/kg dose, mean (n = 3), read-out: Clast)?
A: 1340 ng/mL

Q: And the Cmax ([1]; male Sprague-Dawley rats, single PO 10 mg/kg dose, mean (n = 3), read-out: Cmax)?
A: 22300 ng/mL

Q: What about the half-life ([1]; male Sprague-Dawley rats, single PO 10 mg/kg dose, mean (n = 3), read-out: t1/2 (converted)) of the same compound?
A: 307 min

Q: And the bioavailability ([1]; male Sprague-Dawley rats, single PO 10 mg/kg)?
A: 52.8%

Q: What about the concentration at 24 h ([1]; male Sprague-Dawley rats, single PO 10 mg/kg, at 24 hr, read-out: last measurable concentration) of the same compound?
A: 1340 ng/mL

Q: What about the Cmax ([1]; male Sprague-Dawley rats, single PO 10 mg/kg, read-out: peak plasma concentration (Cmax)) of the same compound?
A: 22300 ng/mL

Q: What about the half-life ([1]; male Sprague-Dawley rats, single PO 10 mg/kg, read-out: terminal half-life (t1/2) (converted)) of the same compound?
A: 307 min

Q: And the “time to peak plasma concentration” value ([2]; after the last of five daily 25 mg/kg PO doses)?
A: ≤ 1 h

Q: And the AUCinf [2, 5]?
A: 489.224 µg·h/mL and 471.587 µg·h/mL

Q: What about the AUCinf/D [2, 5] of the same compound?
A: 16316 kg·h/kL and 19569 kg·h/kL and 18863 kg·h/kL

Q: And the AUClast [2, 5]?
A: 403.575 µg·h/mL and 371.995 µg·h/mL

Q: What about the Clast [2, 5] of the same compound?
A: 5340 ng/mL and 6120 ng/mL

Q: What about the Cmax [2, 5] of the same compound?
A: 26800 ng/mL and 29900 ng/mL

Q: And the Cmax/D [2, 5]?
A: 1184 kg/kL and 1072 kg/kL and 1196 kg/kL

Q: And the F [2, 5]?
A: 31.7% and 38.0% and 36.6%

Q: And the MRTinf [2, 5]?
A: 13.2 h and 14.8 h

Q: What about the t1/2 [2, 5] of the same compound?
A: 10.7 h and 9.67 h

Q: And the AUCinf/D [2, 6]?
A: 18250 kg·h/kL

Q: And the Cmax/D [2, 6]?
A: 1151 kg/kL

Q: What about the F [2, 6] of the same compound?
A: 35.5%

Q: What about the concentration at 24 h ([2]; male, Sprague-Dawley, rat, in vivo, po, 25 mg/kg, after the last of five daily 25 mg/kg PO doses, at 24 hr, read-out: last measurable concentration) of the same compound?
A: 5890 ng/mL

Q: What about the Cmax ([2]; male, Sprague-Dawley, rat, in vivo, po, 25 mg/kg, after the last of five daily 25 mg/kg PO doses, read-out: peak plasma concentration (Cmax)) of the same compound?
A: 28800 ng/mL

Q: And the half-life ([2]; male, Sprague-Dawley, rat, in vivo, po, 25 mg/kg, after the last of five daily 25 mg/kg PO doses, read-out: terminal half-life (t1/2) (converted))?
A: 630 min

Q: And the AUC(0-inf) ([2]; male, Sprague-Dawley, rat, in vivo, po, 25 mg/kg, after the last of five daily 25 mg/kg PO doses, read-out: total systemic exposure (AUCinf))?
A: 456 µg·h/mL

Q: And the AUC(0-t) [2, 7]?
A: 324 µg·h/mL

Q: What about the MRT inf [2, 7] of the same compound?
A: 14.5 h

Q: What about the Tmax [2, 7] of the same compound?
A: 1 h

Q: And the AUC(0-inf) ([2]; male, Sprague-Dawley, rat, in vivo, po, 25 mg/kg, day five of daily PO 25 mg/kg, individual animals, read-out: AUCinf)?
A: 408 µg·h/mL

Q: What about the concentration at 24 h ([2]; male, Sprague-Dawley, rat, in vivo, po, 25 mg/kg, day five of daily PO 25 mg/kg, individual animals, read-out: Clast) of the same compound?
A: 6220 ng/mL

Q: And the Cmax ([2]; male, Sprague-Dawley, rat, in vivo, po, 25 mg/kg, day five of daily PO 25 mg/kg, individual animals, read-out: Cmax)?
A: 29600 ng/mL

Q: And the half-life ([2]; male, Sprague-Dawley, rat, in vivo, po, 25 mg/kg, day five of daily PO 25 mg/kg, individual animals, read-out: t1/2 (converted))?
A: 660 min

Q: What about the AUC(0-t) [2, 8] of the same compound?
A: 367 µg·h/mL

Q: And the MRT inf [2, 8]?
A: 14.1 h

Q: And the Tmax [2, 8]?
A: 1 h

Q: What about the AUC(0-inf) ([2]; male, Sprague-Dawley, rat, in vivo, po, 25 mg/kg, day five of daily PO 25 mg/kg, mean (n = 3), read-out: AUCinf) of the same compound?
A: 456 µg·h/mL

Q: And the concentration at 24 h ([2]; male, Sprague-Dawley, rat, in vivo, po, 25 mg/kg, day five of daily PO 25 mg/kg, mean (n = 3), read-out: Clast)?
A: 5890 ng/mL

Q: And the Cmax ([2]; male, Sprague-Dawley, rat, in vivo, po, 25 mg/kg, day five of daily PO 25 mg/kg, mean (n = 3), read-out: Cmax)?
A: 28800 ng/mL

Q: And the half-life ([2]; male, Sprague-Dawley, rat, in vivo, po, 25 mg/kg, day five of daily PO 25 mg/kg, mean (n = 3), read-out: t1/2 (converted))?
A: 630 min

Q: What about the AUC(0-t) [2, 9] of the same compound?
A: 288 µg·h/mL

Q: What about the MRT inf [2, 9] of the same compound?
A: 9.26 h

Q: What about the Tmax [2, 9] of the same compound?
A: 1 h

Q: What about the AUC(0-inf) ([2]; male, Sprague-Dawley, rat, in vivo, po, 25 mg/kg, single PO 25 mg/kg dose, individual animals, read-out: AUCinf) of the same compound?
A: 315 µg·h/mL

Q: What about the concentration at 24 h ([2]; male, Sprague-Dawley, rat, in vivo, po, 25 mg/kg, single PO 25 mg/kg dose, individual animals, read-out: Clast) of the same compound?
A: 3130 ng/mL

Q: And the Cmax ([2]; male, Sprague-Dawley, rat, in vivo, po, 25 mg/kg, single PO 25 mg/kg dose, individual animals, read-out: Cmax)?
A: 24400 ng/mL

Q: And the AUC(0-t) [2, 10]?
A: 312 µg·h/mL

Q: And the MRT inf [2, 10]?
A: 9.25 h

Q: And the Tmax [2, 10]?
A: 1.33 h

Q: And the AUC(0-inf) ([2]; male, Sprague-Dawley, rat, in vivo, po, 25 mg/kg, single PO 25 mg/kg dose, mean (n = 3), read-out: AUCinf)?
A: 341 µg·h/mL

Q: And the Cmax ([2]; male, Sprague-Dawley, rat, in vivo, po, 25 mg/kg, single PO 25 mg/kg dose, mean (n = 3), read-out: Cmax)?
A: 25900 ng/mL

Q: And the half-life ([2]; male, Sprague-Dawley, rat, in vivo, po, 25 mg/kg, single PO 25 mg/kg dose, mean (n = 3), read-out: t1/2 (converted))?
A: 409 min

Q: And the Cmax ([2]; male, Sprague-Dawley, rat, in vivo, po, 25 mg/kg, single PO 25 mg/kg, read-out: peak plasma concentration (Cmax))?
A: 25900 ng/mL

Q: And the half-life ([2]; male, Sprague-Dawley, rat, in vivo, po, 25 mg/kg, single PO 25 mg/kg, read-out: terminal half-life (t1/2) (converted))?
A: 409 min

Q: And the AUC(0-inf) ([2]; male, Sprague-Dawley, rat, in vivo, po, 25 mg/kg, single PO 25 mg/kg, read-out: total systemic exposure (AUCinf))?
A: 341 µg·h/mL

Q: What about the bioavailability ([2]; male, rat, in vivo, after the last of five daily 25 mg/kg PO doses) of the same compound?
A: 35.5%

Q: What about the AUCinf [2, 11] of the same compound?
A: 363.793 µg·h/mL and 345.084 µg·h/mL

Q: What about the AUCinf/D [2, 11] of the same compound?
A: 12599 kg·h/kL and 14552 kg·h/kL and 13803 kg·h/kL

Q: And the AUClast [2, 11]?
A: 336.46 µg·h/mL and 313.078 µg·h/mL

Q: What about the Clast [2, 11] of the same compound?
A: 2660 ng/mL and 2870 ng/mL

Q: And the Cmax/D [2, 11]?
A: 976 kg/kL and 984 kg/kL and 1152 kg/kL

Q: What about the F [2, 11] of the same compound?
A: 24.5% and 28.3% and 26.8%

Q: And the MRTinf [2, 11]?
A: 8.89 h and 9.60 h

Q: And the t1/2 [2, 11]?
A: 6.94 h and 6.50 h

Q: And the AUCinf/D [2, 12]?
A: 13651 kg·h/kL

Q: And the Cmax/D [2, 12]?
A: 1037 kg/kL
